Experimental data taken from patent US20060058346A1, “Novel enantiomers of etrahydroisoquinoline derivatives and theirpharmaceutically acceptable salts, their preparations and pharmaceutical compositions” (priority 2002, published 2006).
Read-outs that look alike come from different tables or passages of the source.

Key:
[1] = tested on: left auricle muscle; assay: Contractile force of left auricle muscle excised from rats; parameters: species or system rat; details: vehicle control:100%
Experimental: (§1) Immediately after Sprague-Dawley rats (female or male) were anaesthetized with pentobarbital sodium (50 mg/kg, i.m.), the thorax was opened to excise the heart. The heart was submerged in Krebs solution, and left auricle muscle and right auricle muscle were then isolated. The left auricle muscle was placed in an organ bath for recording of contractile force, and applied with electrical field stimulation (voltage 10% higher than threshold voltage, 1 Hz frequency, 5 ms duration). In the case of right auricle muscle, which contracts spontaneously, the number of continuous beats was recorded. In this experiment, to measure contractile fore of the two auricle muscles, the organ bath was warmed to 37° C., and as a physiological solution, Krebs solution (119.8 mM NaCl, 4.6 mM KCl, 2.5 mM CaCl2, 1.2 mM MgCl2, 25 mM NaHCO3, 1.2 mM KH2PO4, 10 mM glucose, 1 mM EDTA, pH 7.4) was used. The Krebs solution (pH 7.4) was continuously saturated with a gas mixture of 95% O2 and 5% CO2. The auricle muscle was under a tension of 1 g, and Krebs solution was exchanged with fresh solution at intervals of 20 minutes while equilibrium was maintained during a recording period of 60 minutes.

[2] = tested on: right auricle muscle; assay: Heart rates (beats) of right auricle muscle excised from rats; parameters: species or system rat; details: vehicle control:100%
Experimental: as §1

[3] = tested on: Rat Thoracic Aortas; assay: Relaxation of rat thoracic aortas contracted by phenylephrine; details: 0.1 μM phenylephrine contraction
Experimental: Experimental group was divided into two groups, group containing endothelial cells of blood vessel and group not containing. Blood vessel of thoracic aortas was induced to contract by treatment with 0.1 μM of phenyleprine under tension of 1 g. Upon arriving at equilibrium, the enantiomers were added to an organ bath in a cumulative manner. Relaxation of thoracic aortas was recorded using a physiograph (Grass P7), calculating their response to the compounds with consideration of their added amount.

[4] = tested on: RAW 264.7 macrophage cells; assay: Nitric oxide production in macrophage cell stimulated by LPS (Griess); assay type: cell-based; details: LPS 1 μg/ml
Experimental: RAW 264.7 macrophage cells were plated on 100 mm culture dishes at a density of 1-2×10^5 cells. Thereafter, the said macrophage cell was incubated in DMEM medium containing 10% fetal calf serum (heat-inactivated), 100 U/ml penicillin, and […] streptomycin in a CO2 incubator. The said macrophage cell was incubated therein confluently. The said incubated macrophage cells were transferred to serum-free DMEM medium, and further incubated therein for about 24 hours. Thereafter, macrophage cells were stimulated with LPS (1 μg/ml) for about 8 hours. (In this progress, experimental group was divided into two groups, group to which the compound was administered, and group to which the compound was not.) Then, nitrite quantification was achieved by performing calorimetric reaction for produced nitrite with Griess reagent and then measuring absorbance at 550 nm, while using NaNO2 as a standard.

[5] = tested on: LPS-injected rat; assay: Serum/plasma level of nitrate/nitrite (NOx) in LPS-injected rat; assay type: in vivo; details: 10 mg/kg compound; LPS 20 mg/kg
Experimental: The rats were divided into three groups; (1) LPS-injected group (LPS was administered to abdominal cavity in an amount of 20 mg/kg), (2) enantiomer-injected group (LPS+the compounds represented by formula 3 to 8 was administered to abdominal cavity) or (3) saline solution-injected group. After administration of LPS, the rats were anaesthetized with pentobarbital. The blood was collected from rats by using heart punching. The plasma level of nitrite was measured by using the nitrate reductase derived from Aspergillus species, where the nitrate was reduced by enzyme. Particularly, the plasma was diluted with distilled water in a ratio of 1:10. Analysis buffering solution (KH2PO4 50 Mm, NADPH 0.6 Mm, FAD 5 Mm and nitrate reductase 10 U/ml, Ph 5.5) was added to the said plasma. Thereafter, the reaction was accomplished at 37° C. for 30 min. The plasma level of nitrite was measured by using sodium nitrite as a standard, and Griess solution. Standard curve to nitrite was calculated from the result derived from incubation in analysis buffering solution.

[6] = tested on: Sprague-Dawley rats; assay: Acute toxicity in rat (LD50); assay type: in vivo; details: for LD50, Intraperitioneal injection: single intraperitoneal injection; for LD50, Intravenous injection: single intravenous injection
Experimental: (§2) Sprague-Dawley rats (six weeks) were used as test sample. Each group was comprised of two rats. […] The said emulsion was administered to two rats one times using intravenous injection and intraperitoneal injection.

[7] = tested on: rat PRP; details: epinephrine; from Yun-Choi et al. 2001; read-out: IC50 platelet aggregation, epinephrine, racemic mixture; cited from earlier work
[8] = tested on: LPS-injected rat; details: from Kang et al. 1999; cited from earlier work
[9] = Acute toxicity in rat (LD50); assay type: in vivo; details: Sprague-Dawley, in vivo
Experimental: as §2

[10] = group containing endothelial cells, read-out: IC50 (E+), concentration showing relaxation response of 50%
[11] = group not containing endothelial cells, read-out: IC50 (E−), concentration showing relaxation response of 50%

| Compound | Contractile Force of Auricle Muscles ([1]; 1 × 10^−4 M) [%] | Contractile Force of Auricle Muscles ([1]; 1 × 10^−5 M) [%] | Contractile Force of Auricle Muscles ([1]; 1 × 10^−6 M) [%] | Contractile Force of Auricle Muscles ([1]; 1 × 10^−7 M) [%] | Contractile Force of Auricle Muscles ([1]; 3 × 10^−5 M) [%] | Contractile Force of Auricle Muscles ([1]; 3 × 10^−6 M) [%] | Contractile Force of Auricle Muscles ([1]; 3 × 10^−7 M) [%] | Heart Rates of Auricle Muscles ([2]; 1 × 10^−4 M) [%] | Heart Rates of Auricle Muscles ([2]; 1 × 10^−5 M) [%] | Heart Rates of Auricle Muscles ([2]; 1 × 10^−6 M) [%] | Heart Rates of Auricle Muscles ([2]; 1 × 10^−7 M) [%] | Heart Rates of Auricle Muscles ([2]; 3 × 10^−5 M) [%] | Heart Rates of Auricle Muscles ([2]; 3 × 10^−6 M) [%] | Heart Rates of Auricle Muscles ([2]; 3 × 10^−7 M) [%] | IC50 [3, 10] [µM] | IC50 [3, 11] [µM] | NO production by LPS in macrophage cell ([4]; compound 10 μM) [µM] | NO production by LPS in macrophage cell ([4]; compound 50 μM) [µM] | NO production by LPS in macrophage cell ([4]; compound 100 μM) [µM] | IC50 [7] [µM] | also measured |
| --- | --- | --- | --- | --- | --- | --- | --- | --- | --- | --- | --- | --- | --- | --- | --- | --- | --- | --- | --- | --- | --- |
| Oc1ccc(CC2NCCc3cc(O)c(O)cc32)cc1 (racemic) [Racemic mixture of formula 3 and formula 4, higenamine, reference compound] | 300 | 260 | 180 | 115 | 280 | 240 | 130 | 200 | 140 | 115 | 110 | 160 | 125 | 110 | 9.81 | 5.61 | 21.3 | 14.3 | 15.2 | 7.2 | plasma level of NOx [5]: 75 ± 4 µM; LD50, Intraperitioneal injection [6]: 280 mg/kg; LD50, Intravenous injection [6]: 98 mg/kg; survival, racemic mixture [8]: 80% |
| Oc1cc2c(cc1O)C(Cc1cccc3ccccc13)NCC2 (racemic) [Racemic mixture of formula 5 and formula 6, 1-α-naphthylmethyl-6,7-dihydroxy-1,2,3,4-tetrahydroisoquioline, reference compound] | 490 | 400 | 310 | 140 | 430 | 360 | 200 | 135 | 130 | 120 | 115 | 130 | 120 | 115 | 0.105 | 6.41 | 31 | 28 | 26 | 1.7 | LD50, Intraperitioneal injection [6]: 242 mg/kg; LD50, Intravenous injection [6]: 92 mg/kg; survival, racemic mixture [8]: 90% |
| Oc1cc2c(cc1O)C(Cc1ccc3ccccc3c1)NCC2 (racemic) [Racemic mixture of formula 7 and formula 8, 1-β-naphthylmethyl-6,7-dihydroxy-1,2,3,4-tetrahydroisoquinoline, reference compound] | 310 | 250 | 180 | 110 | 270 | 220 | 140 | 140 | 140 | 125 | 110 | 140 | 135 | 120 |  |  | 45 | 40 | 39 | 6.3 | IC50 ([3]; Rattus norvegicus, Endothelial cell, group containing endothelial cells, read-out: IC50 (E+), concentration showing relaxation response of 50%): 8.75 µM; IC50 ([3]; Rattus norvegicus, Endothelial cell, group not containing endothelial cells, read-out: IC50 (E−), concentration showing relaxation response of 50%): 51.5 µM; LD50 ([9]; ip, single intraperitoneal injection, read-out: LD50, Intraperitioneal injection): 220 mg/kg; LD50 ([9]; single intravenous injection, read-out: LD50, Intravenous injection): 84 mg/kg |
